# Test results from US20250144131A1, “POLYSACCHARIDE COMPOUND WITH A DEFINED MOLECULAR STRUCTURE FOR THE TREATMENT OF PULMONARY FIBROSIS” (SHENZHEN YANDAI INVESTMENT CO., LTD, priority 2023, published 2025).
# Marks after values point to notes of the source that are not given here.
# Key:
# LLC tumors = assay: Antitumor effect in LLC-bearing mice (tumor volume, relative tumor volume, T/C, tumor coefficient, tumor growth inhibition rate); format: in vivo, C57 mice
# Source text: Tumor volume measurement: […] Relative tumor volume (RTV)=TVt/TV0, where TV0 is the tumor volume at the time of administration, and TVt is the tumor volume at each measurement. Relative tumor growth rate T/C (%)=TRTV/CRTV×100%, where TRTV is the RTV for the treatment group and CRTV is the RTV for the control group. Tumor growth inhibition rate (%)=(model control group tumor weight−treatment group tumor weight)/model control group tumor weight×100%.
# [1] = Hematological and liver/kidney function tests (WBC, RBC, ALT, AST, BUN, CRE) in LLC-bearing mice
# Protocol: LLC cells in logarithmic growth phase at 1×10^7/mL were inoculated at 0.2 mL into the right axilla of 10 purchased normal male C57 mice. Tumor growth was monitored, and tumor-bearing mice were prepared. Once the tumor volume in tumor-bearing mice exceeded 200 mm^3, the tumor tissue was aseptically harvested to prepare a tissue cell suspension. This was mixed at a 1:1 (V:V) ratio with culture medium to create a tumor tissue homogenate. This homogenate was injected into the right axilla of 60 male C57 mice at 0.2 mL per mouse. When the tumor volume in these tumor-bearing mice exceeded 100 mm^3, mice with well-grown tumors without ulceration were selected and randomized into groups based on tumor volume as follows: model control group, cisplatin group (4 mg/kg), Kanglaite soft capsule group (1,404 mg/kg), cisplatin+Kanglaite soft capsule group (4+1,404 mg/kg), cisplatin+GLP-4 low-dose group (4+130 mg/kg), and cisplatin+GLP-4 high-dose group (4+1,170 mg/kg), with 8 mice per group. Additionally, 8 mice were selected as a normal control group. The cisplatin group received intraperitoneal injections of cisplatin, and the other groups were administered their respective drug solutions by gavage (20 mL/kg) or intraperitoneal injection (10 mL/kg), once daily for 27 consecutive days. After the last dose, blood was collected from the orbital plexus to test blood WBC, RBC, liver and kidney function indicators (ALT, AST, BUN, CRE), and CD3^+, CD4^+, and CD8^+ levels. Bone marrow smears were examined, and spleens, thymuses, and tumors were weighed. Histopathological examinations were conducted on the tumor, spleen, stomach, and kidneys.
# Hematological tests: Blood samples for routine blood tests (WBC and RBC) and liver and kidney function tests (BUN and CRE) were collected from the orbital plexus after the last dose.
# [2] = tested on: Liver cancer (H22) cells, orthotopic; assay: Tumors in orthotopic H22-bearing mice by small animal in vivo imaging; design: species or system C57 mice; settings: for Tumor (in vivo imaging): Kanglaite soft capsule 1404 mg/kg
# Source text: (§1) Liver cancer (H22) cells, labeled with Luc fluorescent marker at a concentration of 1×10^7 cells/mL, were initially inoculated into the peritoneal cavity of 8 male C57 mice. After the development of ascites, the ascitic fluid was aseptically extracted, washed with HBSS buffer, centrifuged to discard the supernatant, and stained with Trypan Blue, and cells in the ascitic fluid were counted under a microscope. The cell concentration was adjusted to […] with HBSS buffer and inoculated into the right hepatic region of 51 male C57 mice, at a volume of 10 μL per mouse, to prepare the orthotopic tumor-bearing mice. One week later, the liver tumor formation in mice was detected using a small animal in vivo imaging system. Based on tumor size, the mice were randomized into groups: model control group, cisplatin group (4 mg/kg), Kanglaite soft capsule group (1,404 mg/kg), cisplatin+Kanglaite soft capsule group (4+1,404 mg/kg), cisplatin+GLP-4 low-dose group (4+130 mg/kg), and cisplatin+GLP-4 high-dose group (4+1,170 mg/kg), with 6 mice per group. An additional 6 mice served as the normal control group. The normal control group and the model control group were administered pure water by oral gavage. The chemotherapy group received intraperitoneal injections of cisplatin, and the other groups were administered their respective drug solutions by oral gavage (20 mL/kg) or intraperitoneal injection (10 mL/kg), once daily for 14 consecutive days. After the last dose, blood was collected from the orbital plexus to test blood WBC, RBC, liver and kidney function indicators (ALT, AST, BUN, CRE), and CD3^+/CD4^+, CD3^+/CD8^+ ratios. The spleen, thymus, and tumors were weighed to calculate organ coefficients.
# Tumor volume measurement: Tumor volume changes were measured weekly using small animal in vivo imaging technology.
# [3] = Mortality and body weight of orthotopic H22-bearing mice; settings: Kanglaite soft capsule 1404 mg/kg
# Source text: as §1
# Animal survival and general condition: Weight was recorded weekly, along with any deaths among the animals.
# 4T1 breast cancer cells = assay: Antitumor effect in 4T1 breast tumor-bearing mice (tumor volume, relative tumor growth inhibition rate, tumor index, tumor growth inhibition rate); format: in vivo, BALB/c mice
# Protocol: Longest and shortest diameters of tumors were measured every three days to calculate tumor volume, and mouse weights were recorded every three days. At the end of the experiment, tumors, spleens, and thymuses were harvested and weighed to calculate tumor, spleen, and thymus indices. […] Where TRTV is the relative tumor volume in the experimental group, and CRTV is the relative tumor volume in the model control group. Relative tumor volume (RTV)=Vt/V0, where Vt is the tumor volume on day t of dosing, and V0 is the tumor volume at the time of grouping. Evaluation criteria: […] Where T represents the average tumor weight in the treatment group, and C represents the average tumor weight in the model control group. Evaluation criteria: […]
# [4] = D4, cisplatin 4, Kanglaite 1404, GLP-4 low-dose 130 mg/kg
# [5] = D7, cisplatin 4, Kanglaite 1404, GLP-4 low-dose 130 mg/kg
# [6] = D10, cisplatin 4, Kanglaite 1404, GLP-4 low-dose 130 mg/kg
# [7] = D13, cisplatin 4, Kanglaite 1404, GLP-4 low-dose 130 mg/kg
# [8] = D16, cisplatin 4, Kanglaite 1404, GLP-4 low-dose 130 mg/kg
# [9] = D19, cisplatin 4, Kanglaite 1404, GLP-4 low-dose 130 mg/kg
# [10] = D22, cisplatin 4, Kanglaite 1404, GLP-4 low-dose 130 mg/kg
# [11] = D25, cisplatin 4, Kanglaite 1404, GLP-4 low-dose 130 mg/kg
smiles,measurement,setting,value
"N.N.[Cl][Pt][Cl] [Cisplatin, cisplatin]",Tumor volume,"LLC tumors; D1, cisplatin 4, Kanglaite 1404, GLP-4 low-dose 130 mg/kg",94.99 ± 11.16
same,Relative tumor growth rate (T/C),LLC tumors; [4],81.4%
same,Relative tumor volume,LLC tumors; [4],1.84
same,Tumor volume,LLC tumors; [4],150.58 ± 34.35
same,Relative tumor growth rate (T/C),LLC tumors; [5],45.5%
same,Relative tumor volume,LLC tumors; [5],0.10
same,Relative tumor growth rate (T/C),LLC tumors; [6],27.3%
same,Relative tumor volume,LLC tumors; [6],0.09
same,Relative tumor growth rate (T/C),LLC tumors; [7],70.2%
same,Relative tumor volume,LLC tumors; [7],0.40
same,Tumor volume,LLC tumors; [7],27.36 ± 24.4
same,Relative tumor growth rate (T/C),LLC tumors; [8],28.2%
same,Relative tumor volume,LLC tumors; [8],0.51
same,Relative tumor growth rate (T/C),LLC tumors; [9],36.9%
same,Relative tumor volume,LLC tumors; [9],0.97
same,Relative tumor growth rate (T/C),LLC tumors; [10],30.9%
same,Relative tumor volume,LLC tumors; [10],10.62
same,Relative tumor growth rate (T/C),LLC tumors; [11],23.6%
same,Relative tumor volume,LLC tumors; [11],12.10
same,Tumor coefficient,"LLC tumors; after last dose, cisplatin 4, Kanglaite 1404, GLP-4 low-dose 130 mg/kg",7.528 ± 2.567 ^ %
same,Tumor growth inhibition rate,"LLC tumors; tumor weight vs model control, cisplatin 4, Kanglaite 1404, GLP-4 low-dose 130 mg/kg",61.6%
same,ALT,"[1]; LLC-bearing mice, blood after last dose, cisplatin 4, Kanglaite 1404, GLP-4 low-dose 130 mg/kg",58.25 U/L
same,AST,"[1]; mouse, in vivo, 130 mg/kg",393.25 U/L
same,BUN,"[1]; mouse, in vivo, 130 mg/kg",7.91 mmol/L
same,CRE,"[1]; mouse, in vivo, 130 mg/kg",20.45 µmol/L
same,RBC,"[1]; mouse, in vivo, 130 mg/kg",6.01 ± 10^12/L
same,WBC,"[1]; mouse, in vivo, 130 mg/kg",11.09 ± 10^9/L
same,Tumor (in vivo imaging),"[2]; W0, cisplatin 4 mg/kg",3756000 P/s/cm^2/sr
same,Tumor (in vivo imaging),"[2]; W1, cisplatin 4 mg/kg",12898500 P/s/cm^2/sr
same,Tumor (in vivo imaging),"[2]; W2, cisplatin 4 mg/kg",11871333 P/s/cm^2/sr
same,Tumors compared to the model control group (in vivo imaging),"[2]; cisplatin 4, Kanglaite 1404, GLP-4 low-dose 130 mg/kg",significantly decreased on W2
same,Number of deaths,"[3]; 6 per group, cisplatin 4 mg/kg",3
same,Number of surviving animals,"[3]; 6 per group, cisplatin 4 mg/kg",3
same,Weight,"[3]; W0, cisplatin 4 mg/kg",18.5 ± 1.3 g
same,Weight,"[3]; W1, cisplatin 4 mg/kg",16.9 ± 1.8 ^ g
same,Weight,"[3]; W2, cisplatin 4 mg/kg",15.1 ± 1.6 g
same,Mortality rate,[3]; cisplatin 4 mg/kg,50.0%
same,Tumor volume,"4T1 breast cancer cells; D0, cisplatin 4 mg/kg",225.3 ± 65.4 mm^3
same,Relative tumor growth inhibition rate (compared to model control group),"4T1 breast cancer cells; D3, cisplatin 4 mg/kg",17.2%
same,Relative tumor growth inhibition rate (compared to model control group),"4T1 breast cancer cells; D6, cisplatin 4 mg/kg",43.5* %
same,Relative tumor growth inhibition rate compared to the model control group,"4T1 breast cancer cells; D6 to D25, cisplatin 4, GLP-4 low-dose 130 mg/kg",over 40%
same,Relative tumor growth inhibition rate (compared to model control group),"4T1 breast cancer cells; D9, cisplatin 4 mg/kg",49.1* %
same,Relative tumor growth inhibition rate (compared to model control group),"4T1 breast cancer cells; D12, cisplatin 4 mg/kg",55.7* %
same,Relative tumor growth inhibition rate (compared to model control group),"4T1 breast cancer cells; D15, cisplatin 4 mg/kg",56.9* %
same,Relative tumor growth inhibition rate (compared to model control group),"4T1 breast cancer cells; D19, cisplatin 4 mg/kg",48.8* %
same,Relative tumor growth inhibition rate (compared to model control group),"4T1 breast cancer cells; D22, cisplatin 4 mg/kg",44.1* %
same,Relative tumor growth inhibition rate (compared to model control group),"4T1 breast cancer cells; D25, cisplatin 4 mg/kg",42.1* %
same,Tumor volume,"4T1 breast cancer cells; D25, cisplatin 4 mg/kg",2026.4 ± 707^ mm^3
same,Tumor growth inhibition rate (%) vs. the model control group,4T1 breast cancer cells; cisplatin 4 mg/kg,29.6%
same,Tumor index,4T1 breast cancer cells; cisplatin 4 mg/kg,11.5 ± 3.3%
same,Peak relative tumor growth inhibition rate compared to the model control group,"4T1 breast cancer cells; cisplatin 4, GLP-4 low-dose 130 mg/kg",56.9%
same,Tumor growth inhibition rate compared to the model control group,"4T1 breast cancer cells; tumor weight, cisplatin 4, GLP-4 low-dose 130 mg/kg",29.6%
